Experimental data published in patent US20250059196A1 (SHANGHAI HANSOH BIOMEDICAL CO., LTD., priority 2021, published 2025).

Key:
[1] = molecular target: Recombinant human MALT1/MLT protein (Homo sapiens (Human), UniProt Q9UDY8); assay: Inhibitory effect on MALT1 enzyme activity (Ac-LRSR-AMC substrate, fluorescence 460 nm); format: biochemical; details: 10 nM FL MALT1, Ac-LRSR-AMC substrate, 50 min pre-incubation, 4 h reaction
Method in brief: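 Full-length MALT1 (10 nM) pre-incubated 50 min at room temperature with compound (11-point 3-fold series from 1000 nM), then 4 h reaction with […] Ac-LRSR-AMC in Tris pH 7.5, 0.6 M citrate, DTT, EDTA, BSA, 1.5% DMSO. Fluorescence at 460 nm; IC50 from four-parameter fit.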

[2] = molecular target: MALT1 protease activity in TMD8 cells (substrate BCL-10) (Homo sapiens (Human), UniProt Q9UDY8); assay: Intracellular MALT1 protease activity detection (BCL-10 ELISA in TMD8 cells); format: cell-based; details: undigested BCL-10 by ELISA, 30 min compound then 2 h stimulation cocktail, read-out: Bcl10 TMD8 IC50
Method in brief: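 TMD8 cells treated 30 min with compound (10000-1.5 nM, 9 points, 3-fold), then stimulated 2 h with cell stimulation cocktail. Undigested BCL-10 in lysates quantified by sandwich ELISA with TMB colour read-out; IC50 from four-parameter variable-slope fit.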

[3] = Caco-2 bidirectional permeability test; details: human, Caco-2
Protocol: The purpose of this experiment is to test the bidirectional permeability of the compound through the Caco-2 cell model and evaluate whether the compound is transported by efflux transporters.
Liquid chromatography-mass spectrometer, centrifuge, vortexer, pipette, 96-well test plate (HTS Transwell Plate), acetonitrile solution containing internal standard, Caco-2 cells (ATCC), Hank's balance solution (HBSS), fluorescent yellow (LY), dimethyl sulfoxide (DMSO).
108 μL of transport buffer (HBSS containing 10 μM of the example compound) was added to the administration end of A to B. • b. 300 μL of transport buffer (HBSS containing DMSO) was added to the receiving end of A to B. • c. 300 μL of transport buffer (HBSS containing 10 μM example compound) was added to the administration end of A to B. • d. 108 μL of transport buffer (HBSS containing DMSO) was added to the receiving end of A to B. • e. incubation was performed for 90 min. • d. a sample was taken, processed and detected with mass spectrometry.
• Instruments: Liquid Chromatography; • Chromatographic column: Waters XSelect HSS T3 2.5 μm (2.1×50 mm); • Mobile phase: Phase A: 0.1% formic acid in pure water; Phase B: 0.1% formic acid in acetonitrile.
• Instruments: AP16500+liquid chromatography-mass spectrometer; • The ion source is electrospray ionization source (ESI); • The detection method is positive ion detection;
The scanning method is selected reaction monitoring (MRM).

MALT1 protease activity in TMD8 cells (substrate BCL-10), sequence (Q9UDY8 whole entry): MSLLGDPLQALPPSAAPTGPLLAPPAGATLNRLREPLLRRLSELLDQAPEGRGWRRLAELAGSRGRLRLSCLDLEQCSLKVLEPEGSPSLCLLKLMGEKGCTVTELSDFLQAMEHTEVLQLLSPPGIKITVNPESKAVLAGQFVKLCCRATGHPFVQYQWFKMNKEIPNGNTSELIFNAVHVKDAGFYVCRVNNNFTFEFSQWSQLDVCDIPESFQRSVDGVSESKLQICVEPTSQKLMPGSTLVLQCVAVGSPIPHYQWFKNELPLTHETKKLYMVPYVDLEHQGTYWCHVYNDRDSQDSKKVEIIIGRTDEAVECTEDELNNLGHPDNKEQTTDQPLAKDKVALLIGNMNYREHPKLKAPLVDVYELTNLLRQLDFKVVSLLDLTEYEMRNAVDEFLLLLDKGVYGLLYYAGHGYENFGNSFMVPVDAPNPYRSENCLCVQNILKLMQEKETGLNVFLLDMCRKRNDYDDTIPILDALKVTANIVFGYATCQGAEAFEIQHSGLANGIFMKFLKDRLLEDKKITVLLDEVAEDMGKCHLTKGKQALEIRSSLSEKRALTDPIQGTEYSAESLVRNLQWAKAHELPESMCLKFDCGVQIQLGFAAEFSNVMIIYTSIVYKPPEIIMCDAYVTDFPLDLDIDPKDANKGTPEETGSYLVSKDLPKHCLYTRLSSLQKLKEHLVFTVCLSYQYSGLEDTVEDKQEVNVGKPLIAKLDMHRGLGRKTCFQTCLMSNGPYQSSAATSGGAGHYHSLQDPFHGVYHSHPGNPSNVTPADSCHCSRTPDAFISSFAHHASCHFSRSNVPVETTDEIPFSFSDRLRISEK
Recombinant human MALT1/MLT protein, sequence (Q9UDY8 whole entry): as above

IC50 [1] | IC50 [2] | Papp A→B at 90 min, 10 µM [3] | Papp B→A at 90 min, 10 µM [3] | efflux ratio at 90 min, 10 µM [3] | Compound
24 nM | 61 nM |  |  |  | O=C(Nc1cnc(-n2nccn2)c(C(F)(F)F)c1)c1cnn(-c2ccc3c4c(cccc24)C(=O)N3)c1C(F)(F)F [Example 18, N-(6-(2H-1,2,3-triazol-2-yl)-5-trifluoromethylpyridin-3-yl)-1-(2-oxo-1,2-dihydrobenzo[cd]indol-6-yl)-5-trifluoromethyl-1H-pyrazole-4-carboxamide]
25 nM | 56 nM | 1.58 ×10⁻⁶ cm/s | 4.68 ×10⁻⁶ cm/s | 2.95 | O=C(Nc1ccc(-n2nccn2)c(Cl)c1)c1cnn(-c2ccc3c4c(cccc24)C(=O)N3)c1C(F)(F)F [Example 53, N-(3-chloro-4-(2H-1,2,3-triazol-2-yl)phenyl)-1-(2-oxo-1,2-dihydrobenzo[cd]indol-6-yl)-5-(trifluoromethyl)-1H-pyrazole-4-carboxamide]
171 nM | 50 nM | 2.09 ×10⁻⁶ cm/s | 4.08 ×10⁻⁶ cm/s | 1.97 | O=C(Nc1ccnc(C(F)(F)F)c1)c1cnn(-c2ccc3c4c(cccc24)C(=O)N3)c1C1CC1 [Example 55, 5-cyclopropyl-1-(2-oxo-1,2-dihydrobenzo[cd]indol-6-yl)-N-(2-(trifluoromethyl)pyridin-4-yl)-1H-pyrazole-4-carboxamide]
